Measurements taken from the supplement of paper PMC10307832.

Assays:
Assay in all cases: relative viability (nuclei count vs DMSO), 5 days (fraction); higher = more cells survive
NCI-H1395 = conditions: first compound 1 µM
Outline: (§1)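 Nuclei were stained with Hoechst during a one-step fixation (final 0.05% Triton X-100, 1% formaldehyde, 1 ug/ml Hoechst) carried out 5 days after dosing, then counted on 4× images. The cells, lung cancer lines in 1536-well plates, had been dosed by pin tool the day after seeding with one drug alone or a fixed anchor-drug dose plus five library-drug doses (not always all listed) in √10 steps. Relative viability is the nuclei count in treated wells divided by that in vehicle wells, and each value is the median of duplicate plates.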

NCI-H1793 = system: NCI-H1793
Outline: as §1

NCI-H1944 = system: NCI-H1944
Outline: as §1

NCI-H1993 = system: NCI-H1993
Outline: as §1

NCI-H2023 = system: NCI-H2023
Outline: as §1

NCI-H2126 = system: NCI-H2126
Outline: as §1

NCI-H2228 = system: NCI-H2228
Outline: as §1

NCI-H23 = system: NCI-H23
Outline: as §1

NCI-H2405 = system: NCI-H2405
Outline: as §1

NCI-H358 = system: NCI-H358
Outline: as §1

NCI-H838 = system: NCI-H838
Outline: as §1

SK-LU-1 = system: SK-LU-1
Outline: as §1

For `O=c1cc(N2CCOCC2)oc2c(-c3cccc4c3sc3ccccc34)cccc12` + Cc1nc(Nc2ncc(C(=O)Nc3c(C)cccc3Cl)s2)cc(N2CCN(CCO)CC2)n1 [Dasatinib] (partner 0.075 µM), the relative viability (NCI-H1395) was 0.454, the relative viability (NCI-H1793; first compound 0.01 µM) was 0.372 and the relative viability (NCI-H1793; first compound 0.1 µM) was 0.394. For the same molecule, the relative viability (NCI-H1793; first compound 0.3162 µM) was 0.314, the relative viability (NCI-H1793; first compound 1 µM) was 0.405 and the relative viability (NCI-H1944; first compound 0.01 µM) was 0.218. The relative viability (NCI-H1944; first compound 0.03162 µM) was 0.234, the relative viability (NCI-H1944; first compound 0.1 µM) was 0.203 and the relative viability (NCI-H1944; first compound 0.3162 µM) was 0.24. It also gave a relative viability (NCI-H1944; first compound 1 µM) of 0.225, a relative viability (NCI-H1993; first compound 0.01 µM) of 0.603 and a relative viability (NCI-H1993; first compound 0.03162 µM) of 0.595. It also gave a relative viability (NCI-H1993; first compound 0.1 µM) of 0.657, a relative viability (NCI-H1993; first compound 0.3162 µM) of 0.554 and a relative viability (NCI-H1993; first compound 1 µM) of 0.597. For the same molecule, the relative viability (NCI-H2023; first compound 0.01 µM) was 0.523, the relative viability (NCI-H2023; first compound 0.03162 µM) was 0.677 and the relative viability (NCI-H2023; first compound 0.1 µM) was 0.612. The relative viability (NCI-H2023; first compound 0.3162 µM) was 0.551, the relative viability (NCI-H2023; first compound 1 µM) was 0.513 and the relative viability (NCI-H2126; first compound 0.01 µM) was 0.66. It also gave a relative viability (NCI-H2126; first compound 0.03162 µM) of 0.631, a relative viability (NCI-H2126; first compound 0.1 µM) of 0.609 and a relative viability (NCI-H2126; first compound 0.3162 µM) of 0.611. For the same molecule, the relative viability (NCI-H2126; first compound 1 µM) was 0.533, the relative viability (NCI-H2228; first compound 0.01 µM) was 0.538 and the relative viability (NCI-H2228; first compound 0.03162 µM) was 0.416. It also gave a relative viability (NCI-H2228; first compound 0.1 µM) of 0.49, a relative viability (NCI-H2228; first compound 0.3162 µM) of 0.523 and a relative viability (NCI-H2228; first compound 1 µM) of 0.543. It also gave a relative viability (NCI-H23; first compound 0.01 µM) of 0.828, a relative viability (NCI-H23; first compound 0.03162 µM) of 0.911 and a relative viability (NCI-H23; first compound 0.3162 µM) of 0.815. For the same molecule, the relative viability (NCI-H23; first compound 1 µM) was 0.857, the relative viability (NCI-H2405; first compound 0.01 µM) was 0.188 and the relative viability (NCI-H2405; first compound 0.03162 µM) was 0.224. The relative viability (NCI-H2405; first compound 0.1 µM) was 0.201, the relative viability (NCI-H2405; first compound 0.3162 µM) was 0.238 and the relative viability (NCI-H2405; first compound 1 µM) was 0.196. For the same molecule, the relative viability (NCI-H358; first compound 0.01 µM) was 0.179, the relative viability (NCI-H358; first compound 0.03162 µM) was 0.145 and the relative viability (NCI-H358; first compound 0.1 µM) was 0.201. For the same molecule, the relative viability (NCI-H358; first compound 0.3162 µM) was 0.182, the relative viability (NCI-H358; first compound 1 µM) was 0.167 and the relative viability (NCI-H838; first compound 0.01 µM) was 0.278. The relative viability (NCI-H838; first compound 0.03162 µM) was 0.301, the relative viability (NCI-H838; first compound 0.1 µM) was 0.319 and the relative viability (NCI-H838; first compound 0.3162 µM) was 0.294. The relative viability (NCI-H838; first compound 1 µM) was 0.271, the relative viability (SK-LU-1; first compound 0.01 µM) was 0.173 and the relative viability (SK-LU-1; first compound 0.03162 µM) was 0.175. The relative viability (SK-LU-1; first compound 0.1 µM) was 0.166, the relative viability (SK-LU-1; first compound 0.3162 µM) was 0.195 and the relative viability (SK-LU-1; first compound 1 µM) was 0.181.
